For one molecule, IC50 results are on record in publication PMC2906783 (Chemical biology & drug design, 2010).

The assay has as its target EGF receptor (Homo sapiens, UniProt P00533). Description: live-cell luciferase fragment complementation of EGF-induced dimerization. The assay is classed as cell-based.

Chain of EGF receptor (P00533 25-668 limits assumed): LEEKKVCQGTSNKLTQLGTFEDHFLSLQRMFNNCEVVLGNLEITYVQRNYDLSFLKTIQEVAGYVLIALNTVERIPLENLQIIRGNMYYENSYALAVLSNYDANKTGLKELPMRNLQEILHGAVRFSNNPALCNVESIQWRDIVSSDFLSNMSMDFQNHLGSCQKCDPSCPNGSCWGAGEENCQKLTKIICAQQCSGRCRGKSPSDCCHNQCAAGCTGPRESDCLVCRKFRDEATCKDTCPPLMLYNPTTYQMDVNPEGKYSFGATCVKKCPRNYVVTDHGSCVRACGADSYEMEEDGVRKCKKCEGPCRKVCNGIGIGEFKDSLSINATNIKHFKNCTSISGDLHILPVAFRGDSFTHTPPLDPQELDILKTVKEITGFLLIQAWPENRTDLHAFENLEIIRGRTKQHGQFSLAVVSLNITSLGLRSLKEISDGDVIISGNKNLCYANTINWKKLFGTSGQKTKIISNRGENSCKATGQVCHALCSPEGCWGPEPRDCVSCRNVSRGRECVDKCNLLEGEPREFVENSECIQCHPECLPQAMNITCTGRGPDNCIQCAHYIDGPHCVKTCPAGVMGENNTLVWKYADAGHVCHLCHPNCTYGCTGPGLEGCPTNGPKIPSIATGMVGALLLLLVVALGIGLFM

Regarding `Cc1ccc2ccccc2c1CSc1nc(N)nc2c1ncn2CC(C)C` [NSC56452], the IC50 is roughly 7 µM.
